Converted amounts (≈) assume the structure as drawn. Where two headings read alike, the source gives them in different places.
Experiments:
Aspergillus niger = assay: MIC against fungi on malt extract agar (Use Example B); format: cell-based; settings: 504 h, 3 weeks at 28° C., 60-70% relative atmospheric humidity, read-out: Minimum inhibitory concentrations Aspergillus niger
Description: (§1) The MIC was determined after 3 weeks of storage at 28° C. and 60-70% relative atmospheric humidity. The MIC is the lowest concentration of active compound at which there is no colonization by the microbial species used.

Chaetomium globosum = assay: as above; format: cell-based; settings: 504 h, 3 weeks at 28° C., 60-70% relative atmospheric humidity, read-out: Minimum inhibitory concentrations Chaetomium globosum
Description: as §1

Penicillium brevicaule = assay: as above; format: cell-based; settings: 504 h, 3 weeks at 28° C., 60-70% relative atmospheric humidity, read-out: Minimum inhibitory concentrations Penicillium brevicaule
Description: as §1

Pseudomonas aeroginosa = assay: MIC against bacteria on Landy agar (Use Example A); format: cell-based; settings: 72 h, 3 days at 28° C., 60-70% relative atmospheric humidity, read-out: Minimum inhibitory concentrations Pseudomonas aeroginosa
Description: (§2) A defined Landy Agar was admixed with active compounds according to the invention in concentrations of […]. The MIC was determined after 3 days of storage at 28° C. and 60-70% relative atmospheric humidity. The MIC is the lowest concentration of active compound at which there is no colonization by the microbial species used.

Bacillus subtilis = assay: MIC against bacteria on Landy agar (Use Example A); format: cell-based; settings: 72 h, 3 days at 28° C., 60-70% relative atmospheric humidity, read-out: Minimum inhibitory concentrations Bacillus subtilis
Description: as §2

[1] = test system: Pseudomonas aeruginosa NCIB 6749; assay: MIC antibacterial action (Use Example D, analogous to A); format: cell-based; settings: NCIB6749, 72 h
Description: as §2
Analogously to Use Example A, the minimum inhibitory concentrations (MIC) of active compounds according to the invention were determined. Both on chemically defined medium and on complex medium, the compounds tested had minimum inhibitory concentrations </=100 ppm against Pseudomonas aeruginosa NCIB 6749: […]

Geotrichum candidum = assay: MIC antifungal action (Use Example C, analogous to B); format: cell-based; settings: analogously to Use Example B, read-out: minimum inhibitory concentrations (MIC) Geotrichum candidum
Description: (§3) An agar which had been prepared using malt extract was admixed with active compounds according to the invention in concentrations of from 0.1 mg/l to 5000 mg/l. The MIC was determined after 3 weeks of storage at 28° C. and 60-70% relative atmospheric humidity. The MIC is the lowest concentration of active compound at which there is no colonization by the microbial species used. Analogously to Use Example B, the minimum inhibitory concentrations (MIC) of active compounds according to the invention were determined. Against fungi such as Fusarium solani, Geotrichum candidum and Rhodotorula rubra the compounds tested had minimum inhibitory concentrations of <500 ppm: […]

Rhodotorula rubra = assay: as above; format: cell-based; settings: analogously to Use Example B, read-out: minimum inhibitory concentrations (MIC) Rhodotorula rubra
Description: as §3

Fusarium solani = assay: as above; format: cell-based; settings: analogously to Use Example B, read-out: minimum inhibitory concentrations (MIC) Fusarium solani
Description: as §3

[2] = chemically defined medium, read-out: MIC values (chem.def. medium)
[3] = complex medium, read-out: MIC values (complex medium)

## Nc1onc2c1CCC2 [Example 1, 5,6-dihydro-4H-cyclopenta[c]isoxazole-3-amine]
Aspergillus niger
  MIC: < 100 µg/mL
Chaetomium globosum
  MIC: < 100 µg/mL
Penicillium brevicaule
  MIC: < 100 µg/mL
Pseudomonas aeroginosa
  MIC: < 100 µg/mL
Bacillus subtilis
  MIC: < 40 µg/mL

## CNc1onc2c1CCC2 [Example 2, N-methyl-5,6-dihydro-4H-cyclopenta[c]isoxazole-3-amine]
other
  melting point: 52 °C

## CC(C)(C)C(=O)Nc1onc2c1CCC2 [Example 3, N-(5,6-dihydro-4H-cyclopenta[c]isoxazol-3-yl)-2,2-dimethylpropanamide]
other
  melting point: 113 °C

## O=C(Nc1ccccc1)Nc1onc2c1CCC2 [Example 5, N-(5,6-dihydro-4H-cyclopenta[c]isoxazol-3-yl)-N′-phenylurea]
Aspergillus niger
  MIC: 200 µg/mL (≈ 822 µM)
Chaetomium globosum
  MIC: 100 µg/mL (≈ 411 µM)
Penicillium brevicaule
  MIC: 100 µg/mL (≈ 411 µM)
other
  melting point: 202 °C
Pseudomonas aeroginosa
  MIC: < 100 µg/mL
Bacillus subtilis
  MIC: < 40 µg/mL

## CCCCNC(=S)Nc1onc2c1CCC2 [Example 6, N-butyl-N′-(5,6-dihydro-4H-cyclopenta[c]isoxazol-3-yl)thiourea]
other
  melting point: 93 °C

## O=S(=O)(Nc1onc2c1CCC2)c1ccccc1 [Example 7, N-(5,6-dihydro-4H-cyclopenta[c]isoxazol-3-yl)benzenesulfonamide]
other
  melting point: 132 °C
Pseudomonas aeroginosa
  MIC: 400 µg/mL (≈ 1510 µM)
Bacillus subtilis
  MIC: 100 µg/mL (≈ 378 µM)

## C(=N/c1onc2c1CCC2)/c1ccccc1 [Example 8, N-(5,6-dihydro-4H-cyclopenta[c]isoxazol-3-yl)-N-(-phenylmethylidene)amine]
other
  melting point: 166 °C

## CC(C)C(=O)Nc1onc2c1CCC2 [Example 12]
other
  melting point: 116 °C

## O=C(Nc1onc2c1CCC2)C(F)(F)F [Example 14]
Aspergillus niger
  MIC: 100 µg/mL (≈ 454 µM)
Chaetomium globosum
  MIC: 100 µg/mL (≈ 454 µM)
Penicillium brevicaule
  MIC: 100 µg/mL (≈ 454 µM)
other
  melting point: 118 °C
Pseudomonas aeroginosa
  MIC: < 100 µg/mL
Bacillus subtilis
  MIC: < 40 µg/mL

## CCCC(=O)N(C(=O)CCC)c1onc2c1CCC2 [Example 15]
Aspergillus niger
  MIC: > 400 µg/mL
Chaetomium globosum
  MIC: 100 µg/mL (≈ 378 µM)
Penicillium brevicaule
  MIC: 200 µg/mL (≈ 757 µM)
Pseudomonas aeroginosa
  MIC: < 100 µg/mL
Bacillus subtilis
  MIC: 100 µg/mL (≈ 378 µM)

## CC(C)CC(=O)N(C(=O)CC(C)C)c1onc2c1CCC2 [Example 16]
other
  melting point: 35 °C

## O=C(c1ccco1)N(C(=O)c1ccco1)c1onc2c1CCC2 [Example 17]
other
  melting point: 150 °C

## O=C(Nc1onc2c1CCC2)NC1CCCCC1 [Example 19]
other
  melting point: 152 °C
Pseudomonas aeroginosa
  MIC: 400 µg/mL (≈ 1600 µM)
Bacillus subtilis
  MIC: 100 µg/mL (≈ 401 µM)

## Cc1ccc(NC(=O)Nc2onc3c2CCC3)cc1 [Example 20]
other
  melting point: 218 °C

## O=C(Nc1ccc(Cl)cc1)Nc1onc2c1CCC2 [Example 21]
other
  melting point: 225 °C

## Cc1ccc(NC(=O)Nc2onc3c2CCC3)c(C)c1 [Example 22]
other
  melting point: 230 °C

## S=C(Nc1ccccc1)Nc1onc2c1CCC2 [Example 23]
other
  melting point: 146 °C

## CC(C)S(=O)(=O)Nc1onc2c1CCC2 [Example 24]
other
  melting point: 91 °C

## Cc1ccc(S(=O)(=O)Nc2onc3c2CCC3)cc1 [Example 25]
other
  melting point: 112 °C

## CCCCC/C=N\c1onc2c1CCC2 [Example 27]
other
  melting point: 125 °C

## Fc1ccc(/C=N\c2onc3c2CCC3)cc1 [Example 28]
other
  melting point: > 260 °C

## Clc1ccc(/C=N\c2onc3c2CCC3)cc1 [Example 29]
other
  melting point: 190 °C

## Cc1ccc(/C=N\c2onc3c2CCC3)cc1 [Example 30]
other
  melting point: 238 °C

## COc1ccc(/C=N\c2onc3c2CCC3)cc1 [Example 31]
other
  melting point: 249 °C

## FC(F)(F)c1ccc(/C=N\c2onc3c2CCC3)cc1 [Example 32]
other
  melting point: > 260 °C

## C(=N/c1onc2c1CCC2)/c1ccccn1 [Example 33]
other
  melting point: 167 °C

## CCCCC(CC)COC(=O)N(C(=O)OCC(CC)CCCC)c1onc2c1CCC2 (stereo not drawn) [Example 34]
[1]; [2]
  MIC: 100 µg/mL (≈ 229 µM)
[1]; [3]
  MIC: 50 µg/mL (≈ 115 µM)

## C=C(C)OC(=O)N(C(=O)OC(=C)C)c1onc2c1CCC2 [Example 35]
[1]; [2]
  MIC: 10 µg/mL (≈ 34.2 µM)
[1]; [3]
  MIC: 10 µg/mL (≈ 34.2 µM)

## O=C(OCC(Cl)(Cl)Cl)N(C(=O)OCC(Cl)(Cl)Cl)c1onc2c1CCC2 [Example 36]
[1]; [2]
  MIC: 10 µg/mL (≈ 21.1 µM)
[1]; [3]
  MIC: 5 µg/mL (≈ 10.5 µM)

## CC(C)COC(=O)N(C(=O)OCC(C)C)c1onc2c1CCC2 [Example 37]
[1]; [2]
  MIC: 10 µg/mL (≈ 30.8 µM)
[1]; [3]
  MIC: 5 µg/mL (≈ 15.4 µM)

## C=COC(=O)N(C(=O)OC=C)c1onc2c1CCC2 [Example 38]
Geotrichum candidum
  MIC: 100 µg/mL (≈ 378 µM)
Rhodotorula rubra
  MIC: 100 µg/mL (≈ 378 µM)
Fusarium solani
  MIC: 50 µg/mL (≈ 189 µM)
[1]; [2]
  MIC: 50 µg/mL (≈ 189 µM)
[1]; [3]
  MIC: 20 µg/mL (≈ 75.7 µM)

## O=C(OCc1ccccc1)N(C(=O)OCc1ccccc1)c1onc2c1CCC2 [Example 40]
[1]; [2]
  MIC: 20 µg/mL (≈ 51 µM)
[1]; [3]
  MIC: 20 µg/mL (≈ 51 µM)

## O=C(OCCCl)N(C(=O)OCCCl)c1onc2c1CCC2 [Example 41]
Geotrichum candidum
  MIC: 500 µg/mL (≈ 1480 µM)
Rhodotorula rubra
  MIC: 200 µg/mL (≈ 593 µM)
Fusarium solani
  MIC: 200 µg/mL (≈ 593 µM)
[1]; [2]
  MIC: 10 µg/mL (≈ 29.7 µM)
[1]; [3]
  MIC: 5 µg/mL (≈ 14.8 µM)

## O=C(OCCBr)N(C(=O)OCCBr)c1onc2c1CCC2 [Example 42]
Geotrichum candidum
  MIC: 500 µg/mL (≈ 1170 µM)
Rhodotorula rubra
  MIC: 500 µg/mL (≈ 1170 µM)
Fusarium solani
  MIC: 200 µg/mL (≈ 469 µM)
[1]; [2]
  MIC: 10 µg/mL (≈ 23.5 µM)
[1]; [3]
  MIC: 5 µg/mL (≈ 11.7 µM)

## C=CCOC(=O)N(C(=O)OCC=C)c1onc2c1CCC2 [Example 43]
[1]; [2]
  MIC: 20 µg/mL (≈ 68.4 µM)
[1]; [3]
  MIC: 10 µg/mL (≈ 34.2 µM)

Reference: patent publication US20060142359A1, “Cyclopenta[c]isoxazole-3-amines used as protective agents for materials” (priority 2002, published 2006)
